The results in this text go back to ChEMBL document CHEMBL6177997, “Design, Synthesis, and Evaluation of Novel ROCK Inhibitors for Glaucoma Treatment: Insights into In Vitro and In Vivo Efficacy and Safety” (J Med Chem, 2025).

Experiment [1] concerns the target MAP kinase-interacting serine/threonine-protein kinase 1 (Homo sapiens, UniProt Q9BUB5). The experiment is described as follows: Inhibition of MNK1 (unknown origin) at 5 uM preincubated for 10 mins followed by substrate addition and measured after 60 mins by ADP-glo kinase assay relative to control. The following applies: time 70.0 min. A general note: ADP-Glo first removes unused ATP, then detects ADP through luciferase.

The target in experiment [2] is Rho-associated protein kinase 2 (Homo sapiens, UniProt O75116). In words: Inhibition of ROCK2 (unknown origin) incubated for 40 mins in presence of ATP by ADP-glo assay.
Experiment [3] addresses Rho-associated protein kinase 1 (Homo sapiens, UniProt Q13464). The experiment is described as follows: Inhibition of ROCK1 (unknown origin) incubated for 40 mins in presence of ATP by ADP-glo assay.
Experiment [4] concerns the target MAP kinase-interacting serine/threonine-protein kinase 2 (Homo sapiens) (UniProt Q9HBH9). In words: Inhibition of MNK2 (unknown origin) at 5 uM preincubated for 10 mins followed by substrate addition and measured after 60 mins by ADP-glo kinase assay relative to control. The following applies: time 70.0 min.

A value given as a limit tells only on which side of the number the result lay.

Chain of MAP kinase-interacting serine/threonine-protein kinase 1 (Q9BUB5 whole entry, looked up): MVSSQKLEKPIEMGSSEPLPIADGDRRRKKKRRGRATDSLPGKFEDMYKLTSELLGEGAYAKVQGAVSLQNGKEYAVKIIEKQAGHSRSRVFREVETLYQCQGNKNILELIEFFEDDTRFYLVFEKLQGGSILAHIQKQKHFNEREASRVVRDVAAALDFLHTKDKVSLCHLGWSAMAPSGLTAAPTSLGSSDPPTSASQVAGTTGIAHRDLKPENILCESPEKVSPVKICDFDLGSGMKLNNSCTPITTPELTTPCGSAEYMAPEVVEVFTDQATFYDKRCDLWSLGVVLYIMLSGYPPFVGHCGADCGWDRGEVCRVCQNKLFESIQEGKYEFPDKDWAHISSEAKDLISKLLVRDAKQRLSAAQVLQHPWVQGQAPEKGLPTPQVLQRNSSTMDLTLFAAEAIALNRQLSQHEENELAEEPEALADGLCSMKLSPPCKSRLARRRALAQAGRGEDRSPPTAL
Chain of Rho-associated protein kinase 1 (Q13464 whole entry): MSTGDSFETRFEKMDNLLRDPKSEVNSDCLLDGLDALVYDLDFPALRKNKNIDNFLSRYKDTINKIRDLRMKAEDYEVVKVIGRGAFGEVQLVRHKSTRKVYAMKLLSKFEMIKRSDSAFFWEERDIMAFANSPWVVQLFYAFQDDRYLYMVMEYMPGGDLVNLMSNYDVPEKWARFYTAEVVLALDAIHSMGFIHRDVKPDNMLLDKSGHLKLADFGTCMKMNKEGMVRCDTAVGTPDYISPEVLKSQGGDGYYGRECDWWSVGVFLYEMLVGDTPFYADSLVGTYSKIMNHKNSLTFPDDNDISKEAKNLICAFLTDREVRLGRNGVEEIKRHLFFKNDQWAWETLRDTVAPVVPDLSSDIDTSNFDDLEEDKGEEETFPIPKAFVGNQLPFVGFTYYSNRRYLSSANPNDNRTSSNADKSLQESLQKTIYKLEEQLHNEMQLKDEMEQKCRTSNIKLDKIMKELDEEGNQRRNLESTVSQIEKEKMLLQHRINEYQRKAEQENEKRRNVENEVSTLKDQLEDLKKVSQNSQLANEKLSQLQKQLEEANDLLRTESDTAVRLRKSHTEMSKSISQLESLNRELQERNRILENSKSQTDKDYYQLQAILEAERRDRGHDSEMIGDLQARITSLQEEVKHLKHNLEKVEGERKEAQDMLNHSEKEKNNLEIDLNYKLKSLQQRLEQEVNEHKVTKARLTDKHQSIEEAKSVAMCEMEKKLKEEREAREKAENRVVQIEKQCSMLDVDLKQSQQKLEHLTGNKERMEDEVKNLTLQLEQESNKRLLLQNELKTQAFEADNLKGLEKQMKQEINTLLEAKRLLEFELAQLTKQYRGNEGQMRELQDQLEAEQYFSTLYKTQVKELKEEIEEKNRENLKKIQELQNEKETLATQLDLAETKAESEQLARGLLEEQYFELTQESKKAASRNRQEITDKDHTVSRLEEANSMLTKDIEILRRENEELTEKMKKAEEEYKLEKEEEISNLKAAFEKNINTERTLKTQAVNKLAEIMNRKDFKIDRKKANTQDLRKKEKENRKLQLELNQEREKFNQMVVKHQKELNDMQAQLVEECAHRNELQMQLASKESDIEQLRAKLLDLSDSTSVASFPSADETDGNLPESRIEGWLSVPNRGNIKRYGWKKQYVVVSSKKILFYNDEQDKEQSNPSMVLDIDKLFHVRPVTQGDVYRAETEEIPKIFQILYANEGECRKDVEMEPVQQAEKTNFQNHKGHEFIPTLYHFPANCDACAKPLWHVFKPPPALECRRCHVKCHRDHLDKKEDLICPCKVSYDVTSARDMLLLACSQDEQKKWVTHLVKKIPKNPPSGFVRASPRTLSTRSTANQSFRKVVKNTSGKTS
Chain of MAP kinase-interacting serine/threonine-protein kinase 2 (Homo sapiens) (Q9HBH9 whole entry, looked up): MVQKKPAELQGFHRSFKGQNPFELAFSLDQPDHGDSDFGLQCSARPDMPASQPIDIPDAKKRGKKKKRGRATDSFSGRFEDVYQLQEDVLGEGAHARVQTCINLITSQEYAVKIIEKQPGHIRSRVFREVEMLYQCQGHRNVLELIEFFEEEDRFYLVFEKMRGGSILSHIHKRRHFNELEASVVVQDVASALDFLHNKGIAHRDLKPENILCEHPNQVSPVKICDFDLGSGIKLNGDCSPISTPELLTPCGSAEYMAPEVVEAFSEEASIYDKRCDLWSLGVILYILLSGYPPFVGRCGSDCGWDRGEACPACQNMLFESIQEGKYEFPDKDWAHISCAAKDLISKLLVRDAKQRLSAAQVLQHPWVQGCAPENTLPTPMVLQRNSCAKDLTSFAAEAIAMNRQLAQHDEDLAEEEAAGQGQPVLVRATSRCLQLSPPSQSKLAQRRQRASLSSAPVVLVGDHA
Chain of Rho-associated protein kinase 2 (O75116 whole entry): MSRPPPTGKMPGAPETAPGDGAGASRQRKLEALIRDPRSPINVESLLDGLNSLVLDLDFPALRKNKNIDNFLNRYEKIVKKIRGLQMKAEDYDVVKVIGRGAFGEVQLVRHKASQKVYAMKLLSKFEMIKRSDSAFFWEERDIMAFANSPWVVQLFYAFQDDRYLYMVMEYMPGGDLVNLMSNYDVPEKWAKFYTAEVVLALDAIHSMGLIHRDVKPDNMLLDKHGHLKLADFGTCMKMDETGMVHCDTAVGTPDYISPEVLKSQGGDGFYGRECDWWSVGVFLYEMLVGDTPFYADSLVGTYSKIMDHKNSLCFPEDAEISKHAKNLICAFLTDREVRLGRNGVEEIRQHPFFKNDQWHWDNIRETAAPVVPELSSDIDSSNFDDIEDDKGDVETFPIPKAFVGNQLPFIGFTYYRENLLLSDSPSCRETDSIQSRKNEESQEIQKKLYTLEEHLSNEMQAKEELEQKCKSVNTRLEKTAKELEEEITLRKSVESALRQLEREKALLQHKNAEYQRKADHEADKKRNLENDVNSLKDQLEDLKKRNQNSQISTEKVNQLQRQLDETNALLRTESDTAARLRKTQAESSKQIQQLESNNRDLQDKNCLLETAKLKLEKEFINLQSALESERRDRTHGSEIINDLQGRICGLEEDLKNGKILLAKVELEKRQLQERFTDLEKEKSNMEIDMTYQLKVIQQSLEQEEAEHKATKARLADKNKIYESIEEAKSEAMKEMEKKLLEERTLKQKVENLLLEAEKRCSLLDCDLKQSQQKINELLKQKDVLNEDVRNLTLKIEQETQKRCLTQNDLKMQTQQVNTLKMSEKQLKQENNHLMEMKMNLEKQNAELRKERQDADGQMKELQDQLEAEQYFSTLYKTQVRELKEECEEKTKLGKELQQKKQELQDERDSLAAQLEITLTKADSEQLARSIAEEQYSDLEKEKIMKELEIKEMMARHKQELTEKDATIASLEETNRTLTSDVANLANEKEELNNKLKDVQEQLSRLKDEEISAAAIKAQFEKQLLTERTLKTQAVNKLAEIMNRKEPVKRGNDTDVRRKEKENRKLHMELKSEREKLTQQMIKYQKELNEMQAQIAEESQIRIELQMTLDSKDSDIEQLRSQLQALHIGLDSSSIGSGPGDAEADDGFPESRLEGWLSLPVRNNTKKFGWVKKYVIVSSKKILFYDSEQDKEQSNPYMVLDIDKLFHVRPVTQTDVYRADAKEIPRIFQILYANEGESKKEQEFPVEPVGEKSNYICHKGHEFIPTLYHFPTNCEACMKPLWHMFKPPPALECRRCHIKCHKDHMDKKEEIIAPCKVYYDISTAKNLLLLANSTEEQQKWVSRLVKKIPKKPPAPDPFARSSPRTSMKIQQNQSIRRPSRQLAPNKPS

One may read the inhibition as the relative decrease from the control value, in per cent. Low readings indicate a response near the control, high ones a response far below the control. Broadly, the IC50 is the concentration that inhibits the measured activity by half. `Cc1ccc(CN2CCC(c3cc(-c4ccnc5[nH]ccc45)[nH]n3)CC2)cc1`: the inhibition was 76% in experiment [1] and 82.2% in experiment [4]. Also, the concentration for half-maximal inhibition (IC50) in experiment [2] and in experiment [3] was above 5000 nM throughout.

In the case of `COc1ccc(CN2CCC(c3cc(-c4ccnc5[nH]ccc45)[nH]n3)CC2)cc1`, the inhibition in experiment [1] amounted to 61.5%; in experiment [4] it was 67.4%. For the same molecule, the values for the IC50 in experiment [2] and in experiment [3] were 118 nM and 183 nM, respectively.

As for `C=CC(=O)N1CCC(c2cc(-c3ccnc4[nH]ccc34)[nH]n2)CC1`, the inhibition in experiment [1] turned out to be 56%; in experiment [4], 61%. Moreover, the results for the IC50 in experiment [2] and in experiment [3] were 553 nM and 791 nM, respectively.

Consider `O=C(Cc1ccccc1)N1CCC(c2cc(-c3ccnc4[nH]ccc34)[nH]n2)CC1`, for which the inhibition in experiment [1] is 49.7%; in experiment [4], 72.2%. The IC50 is 433 nM in experiment [2] and 432 nM in experiment [3].

As to `Cc1ccc(S(=O)(=O)N2CCC(c3cc(-c4ccnc5[nH]ccc45)[nH]n3)CC2)cc1`, the inhibition in experiment [1] is 6.4%; in experiment [4] it was 6.9%. Besides, the IC50 in experiment [2] and in experiment [3] was above 10000 nM each time.

For `Cc1cccc(CN2CCC(c3cc(-c4ccnc5[nH]ccc45)[nH]n3)CC2)c1`, the inhibition is 71.4% in experiment [1] and 79.9% in experiment [4]. Further, the concentration for half-maximal inhibition (IC50) in experiment [2] and in experiment [3] was above 5000 nM throughout.

Consider `FC(F)(F)c1cccc(CN2CCC(c3cc(-c4ccnc5[nH]ccc45)[nH]n3)CC2)c1`, for which the inhibition in experiment [1] was 50.9%; in experiment [4], 57.2%. In addition, the IC50 in experiment [2] was 969 nM; in experiment [3], 1180 nM.

Regarding `Fc1cccc(CN2CCC(c3cc(-c4ccnc5[nH]ccc45)[nH]n3)CC2)c1`, the figures for the inhibition in experiment [1] and in experiment [4] were 69.9% and 76.8%, respectively. Further, the results for the IC50 in experiment [2] and in experiment [3] were 338 nM and 295 nM, respectively.

In the case of `O=C(C1CC1)N1CCC(c2cc(-c3ccnc4[nH]ccc34)[nH]n2)CC1`, the results for the inhibition in experiment [1] and in experiment [4] were 40.9% and 42.5%, respectively. The concentration for half-maximal inhibition (IC50) is 1070 nM in experiment [2] and 1010 nM in experiment [3].

Consider `COC(=O)c1cccc(CN2CCC(c3cc(-c4ccnc5[nH]ccc45)[nH]n3)CC2)c1`, for which the inhibition turned out to be 61.6% in experiment [1] and 70.9% in experiment [4]. The half-maximal inhibitory concentration (IC50) in experiment [2] was 390 nM; in experiment [3] it was 570 nM.

As to `O=C(c1ccc(F)cc1)N1CCC(c2cc(-c3ccnc4[nH]ccc34)[nH]n2)CC1`, the inhibition came to 61.1% in experiment [1] and 47.4% in experiment [4]. In addition, the IC50 in experiment [2] stood at 833 nM; in experiment [3], 821 nM.

On to `O=C(C1CCC1)N1CCC(c2cc(-c3ccnc4[nH]ccc34)[nH]n2)CC1`, for which the inhibition in experiment [1] is 39.9%; in experiment [4], 42.3%. Further, the concentration for half-maximal inhibition (IC50) in experiment [2] is 1050 nM; in experiment [3], 846 nM.

On to `COc1cccc(C(=O)N2CCC(c3cc(-c4ccnc5[nH]ccc45)[nH]n3)CC2)c1`, for which the inhibition was found to be 52.5% in experiment [1] and 34.3% in experiment [4]. The IC50 in experiment [2] was determined as 577 nM; in experiment [3] it was 805 nM.

Take `COc1ccc(CN2CCC(c3cc(-c4ccnc5[nH]ccc45)[nH]n3)CC2)cc1OC`: the inhibition came to 65.2% in experiment [1] and 66.1% in experiment [4]. Moreover, the IC50 in experiment [2] turned out to be 150 nM; in experiment [3], 241 nM.

Turning to `Cc1ccc(C(=O)N2CCC(c3cc(-c4ccnc5[nH]ccc45)[nH]n3)CC2)cc1`, the inhibition in experiment [1] is 74.4%; in experiment [4] it was 52.2%. The values for the IC50 in experiment [2] and in experiment [3] were 484 nM and 773 nM, respectively.

Take `c1ccc(CN2CCC(c3cc(-c4ccnc5[nH]ccc45)[nH]n3)CC2)cc1`: the inhibition in experiment [1] is 73.2%; in experiment [4], 82.4%. The half-inhibitory concentration (IC50) amounted to 172 nM in experiment [2] and 197 nM in experiment [3].

On to `O=C(c1ccc(F)c(F)c1)N1CCC(c2cc(-c3ccnc4[nH]ccc34)[nH]n2)CC1`, for which the inhibition in experiment [1] stood at 67.2%; in experiment [4], 53.3%. For the same molecule, the values for the IC50 in experiment [2] and in experiment [3] were 907 nM and 699 nM, respectively.

Take `O=C(c1ccc(Cl)cc1)N1CCC(c2cc(-c3ccnc4[nH]ccc34)[nH]n2)CC1`: the figures for the inhibition in experiment [1] and in experiment [4] were 82.2% and 58.4%, respectively. The half-maximal inhibitory concentration (IC50) in experiment [2] stood at 369 nM; in experiment [3] it was 899 nM.

As to `COc1cccc(CC(=O)N2CCC(c3cc(-c4ccnc5[nH]ccc45)[nH]n3)CC2)c1`, the values for the inhibition in experiment [1] and in experiment [4] were 41.6% and 62.7%, respectively. The 50% inhibitory concentration (IC50) in experiment [2] amounted to 305 nM; in experiment [3] it was 350 nM.

For the molecule `COC(=O)c1ccc(C(=O)N2CCC(c3cc(-c4ccnc5[nH]ccc45)[nH]n3)CC2)cc1`, the inhibition in experiment [1] came out at 77.1%; in experiment [4], 53.4%. Moreover, the results for the 50% inhibitory concentration (IC50) in experiment [2] and in experiment [3] were 401 nM and 777 nM, respectively.

Turning to `COc1cc(C(=O)N2CCC(c3cc(-c4ccnc5[nH]ccc45)[nH]n3)CC2)cc(OC)c1OC`, the inhibition in experiment [1] turned out to be 60.8%; in experiment [4], 74.4%. Moreover, the half-maximal inhibitory concentration (IC50) in experiment [2] turned out to be 1450 nM; in experiment [3] it was 1490 nM.

`CC(=O)c1ccc(C(=O)N2CCC(c3cc(-c4ccnc5[nH]ccc45)[nH]n3)CC2)cc1`: the inhibition in experiment [1] was found to be 71.7%; in experiment [4], 60.9%. Besides, the IC50 in experiment [2] amounted to 468 nM; in experiment [3] it was 512 nM.

As to `Fc1ccc(CN2CCC(c3cc(-c4ccnc5[nH]ccc45)[nH]n3)CC2)cc1F`, the inhibition came to 71.1% in experiment [1] and 78.8% in experiment [4]. Further, the figures for the IC50 in experiment [2] and in experiment [3] were 295 nM and 425 nM, respectively.

For `CC(=O)N1CCC(c2cc(-c3ccnc4[nH]ccc34)[nH]n2)CC1`, the inhibition was 41.8% in experiment [1] and 58% in experiment [4]. The values for the IC50 in experiment [2] and in experiment [3] were 980 nM and 1220 nM, respectively.

`CCS(=O)(=O)N1CCC(c2cc(-c3ccnc4[nH]ccc34)[nH]n2)CC1`: the results for the inhibition in experiment [1] and in experiment [4] were 16% and 22.4%, respectively. Moreover, the IC50 in experiment [2] was found to be 158 nM; in experiment [3] it was 286 nM.

For the molecule `N#CCN1CCC(c2cc(-c3ccnc4[nH]ccc34)[nH]n2)CC1`, the inhibition in experiment [1] stood at 71.4%; in experiment [4], 84.4%. Moreover, the IC50 in experiment [2] amounted to 130 nM; in experiment [3], 261 nM.

On to `O=C(C1CCCC1)N1CCC(c2cc(-c3ccnc4[nH]ccc34)[nH]n2)CC1`, for which the inhibition in experiment [1] was determined as 47.5%; in experiment [4], 44.4%. Also, the half-maximal inhibitory concentration (IC50) in experiment [2] was 3880 nM; in experiment [3] it was 1980 nM.

Consider `O=C(c1ccc([N+](=O)[O-])cc1)N1CCC(c2cc(-c3ccnc4[nH]ccc34)[nH]n2)CC1`, for which the inhibition worked out at 78.6% in experiment [1] and 63.5% in experiment [4]. Moreover, the values for the IC50 in experiment [2] and in experiment [3] were 699 nM and 823 nM, respectively.

Consider `c1ccc(Oc2cccc(CN3CCC(c4cc(-c5ccnc6[nH]ccc56)[nH]n4)CC3)c2)cc1`, for which the inhibition in experiment [1] amounted to 68.1%; in experiment [4] it was 73.5%. Besides, the results for the concentration for half-maximal inhibition (IC50) in experiment [2] and in experiment [3] were 1060 nM and 1340 nM, respectively.

Regarding `O=C(c1cccc(F)c1)N1CCC(c2cc(-c3ccnc4[nH]ccc34)[nH]n2)CC1`, the inhibition in experiment [1] was found to be 66.6%; in experiment [4] it was 52.1%. The half-inhibitory concentration (IC50) in experiment [2] was determined as 542 nM; in experiment [3], 842 nM.

On to `CC(=O)c1cccc(CN2CCC(c3cc(-c4ccnc5[nH]ccc45)[nH]n3)CC2)c1`, for which the inhibition came out at 69.2% in experiment [1] and 89% in experiment [4]. Also, the concentration for half-maximal inhibition (IC50) in experiment [2] was 823 nM; in experiment [3], 895 nM.

For `COc1ccc(C(=O)N2CCC(c3cc(-c4ccnc5[nH]ccc45)[nH]n3)CC2)cc1OC`, the inhibition was determined as 73% in experiment [1] and 59.7% in experiment [4]. Further, the IC50 in experiment [2] was 362 nM; in experiment [3], 696 nM.

Take `COc1ccc(C(=O)N2CCC(c3cc(-c4ccnc5[nH]ccc45)[nH]n3)CC2)cc1`: the inhibition in experiment [1] amounted to 75.3%; in experiment [4] it was 54.7%. In addition, the values for the IC50 in experiment [2] and in experiment [3] were 492 nM and 829 nM, respectively.

Regarding `O=C(CC1CC1)N1CCC(c2cc(-c3ccnc4[nH]ccc34)[nH]n2)CC1`, the inhibition in experiment [1] was 39.3%; in experiment [4] it was 46.5%. Besides, the results for the 50% inhibitory concentration (IC50) in experiment [2] and in experiment [3] were 787 nM and 1180 nM, respectively.

Regarding `COc1ccc(CC(=O)N2CCC(c3cc(-c4ccnc5[nH]ccc45)[nH]n3)CC2)cc1`, the figures for the inhibition in experiment [1] and in experiment [4] were 8.8% and 4.2%, respectively. For the same molecule, the results for the IC50 in experiment [2] and in experiment [3] were 486 nM and 813 nM, respectively.

Consider `O=S(=O)(C1CC1)N1CCC(c2cc(-c3ccnc4[nH]ccc34)[nH]n2)CC1`, for which the inhibition in experiment [1] is 63.6%; in experiment [4], 73.4%. Besides, the half-maximal inhibitory concentration (IC50) in experiment [2] was 1070 nM; in experiment [3], 489 nM.

On to `O=C(C1CCCCC1)N1CCC(c2cc(-c3ccnc4[nH]ccc34)[nH]n2)CC1`, for which the inhibition in experiment [1] was found to be 20.8%; in experiment [4] it was 14.6%. Further, the concentration for half-maximal inhibition (IC50) in experiment [2] was 2110 nM; in experiment [3], 1720 nM.

For `O=C(c1ccc(C(F)(F)F)cc1)N1CCC(c2cc(-c3ccnc4[nH]ccc34)[nH]n2)CC1`, the inhibition in experiment [1] was found to be 81.3%; in experiment [4] it was 57.4%. The 50% inhibitory concentration (IC50) in experiment [2] came out at 939 nM; in experiment [3], 1160 nM.

With `O=S(=O)(F)N1CCC(c2cc(-c3ccnc4[nH]ccc34)[nH]n2)CC1`, the inhibition in experiment [1] was 68.3%; in experiment [4], 86.7%. Also, the IC50 was 329 nM in experiment [2] and 229 nM in experiment [3].
